In EPA's ToxValDB 9.5:
Values joined by “and” are separate entries in the source; they are usually repeats but may differ in a detail not shown here. Equal values may be shown once.

What was measured:
Rattus norvegicus [1] = details: oral, M/F
Rattus norvegicus [2] = details: for NOAEL: M/F
Rattus norvegicus [3] = details: oral
Mus musculus = details: oral, C57BL/6; for LEL / NEL: short-term, duration: 28 days, gavage
Rattus norvegicus [4] = details: uterotrophic; duration: 2 days; injection; subcutaneous; Active
[5] = chronic, duration: 2 years, diet, RBC, ChE inhibition + reduced hemoglobin, hematocrit and RBCs
[6] = chronic, duration: 2 years, diet, glomerulonephritis, atrophic testes, eye keratitis reduced body weight and organ weight
[7] = reproduction developmental, reduced offspring body weight
[8] = chronic, duration: 2 years, diet, lungs, liver, kidney, thyroid and thyroid hormones
[9] = subchronic, gavage, liver toxicity
[10] = chronic, diet, Liver cytomegaly, fatty metamorphosis, angiectasis + thyroid cystic follicles
[11] = F, Liver: Acyl-CoA Oxidase Activity, Liver + Multi-organ: IgM Serum Titer + Spleen: Spleen Weight, Absolute + Spleen: Spleen Weight, Relative
[12] = F, Liver: Liver Weight, Absolute + Liver: Liver Weight, Relative
[13] = M, Liver: Acyl-CoA Oxidase Activity, Liver + Liver: Liver Weight, Absolute + Liver: Liver Weight, Relative
[14] = M, Spleen: CD4-/CD8- Cell Count + Spleen: CD4+/CD8+ Cell Count + Spleen: CD8+ Cell Count
[15] = chronic, duration: 2 years, diet, reduced body weight

## COP(=S)(OC)Oc1ccc([N+](=O)[O-])cc1 [Methyl parathion]
Rattus norvegicus [1]; [5]
  LEL: 0.25 mg/kg-day
  NOEL: 0.025 mg/kg-day
Rattus norvegicus [2]; chronic, duration: 28 months, oral, diet, Sprague-Dawley, hematological
  NOAEL: 0.025 mg/kg-day
Rattus norvegicus [2]; subchronic, duration: 13 weeks, oral, gavage, M, Wistar, neurological
  LOAEL: 0.22 mg/kg-day
Rattus norvegicus [3]; subchronic, duration: 90 days, diet, Erythrocytes: Cholinesterase inhibition
  NOAEL: 0.24 mg/kg-day

## Brc1ccc(Oc2ccc(Br)cc2Br)c(Br)c1 [2,2',4,4'-Tetrabromodiphenyl ether]
Mus musculus; developmental, M/F, generation: F1, F1: Morris water maze (swim speed, first trial) + F1: Morris water maze (swim speed, last trial) + F1: Morris water maze (swim speed, middle…
  LOEL: 1 mg/kg-day
Mus musculus; reproduction developmental, F, generation: P0, P0: Morris water maze (latency, first trial)
  LOEL: 0.03 mg/kg-day
Rattus norvegicus [2]; subchronic, duration: 8 weeks, oral, gavage, M, Sprague-Dawley, reproductive
  LOAEL: 0.001 mg/kg-day

## Cn1cc(-c2ccccc2)c(=O)c(-c2cccc(C(F)(F)F)c2)c1 [1-Methyl-3-phenyl-5-(3-(trifluoromethyl)phenyl)-4-pyridone]
Rattus norvegicus [1]; [6]
  LEL: 25 mg/kg-day
  NOEL: 8 mg/kg-day
Rattus norvegicus [3]; chronic, duration: 2 years, diet, Kidney: Glomerulonephritis + Organs: Decreased weight + Testis: Atrophy + Whole body: Decreased weight
  NOEL: 15.6 mg/kg-day

## O=C1CCCCCN1 [Caprolactam]
Rattus norvegicus [1]; [7]
  LOAEL: 250 mg/kg-day
  NOAEL: 50 mg/kg-day
Rattus norvegicus [3]; subchronic, duration: 90 days, diet, Kidney: Effects
  NOAEL: 50 mg/kg-day

## COC(=O)c1c(Cl)c(Cl)c(C(=O)OC)c(Cl)c1Cl [Chlorthal-dimethyl]
Rattus norvegicus [1]; [8]
  LOAEL: 10 mg/kg-day
  NOAEL: 1 mg/kg-day
Rattus norvegicus [3]; chronic, duration: 2 years, diet, Kidney: Effects + Liver: Effects + Lung: Effects + Thyroid hormones: Effects + Thyroid: Effects
  NOAEL: 1 mg/kg-day

## Oc1ccccc1 [Phenol]
Rattus norvegicus [3]; developmental, gavage, Fetus: Decreased weight
  NOAEL: 60 mg/kg-day

## [Be] [Beryllium]
Rattus norvegicus [3]; chronic, drinking water, None Observed
  NOAEL: 0.54 mg/kg-day

## CCNc1nc(NC(C)C)nc(SC)n1 [Ametryn]
Rattus norvegicus [1]; [9]
  LEL: 100 mg/kg-day
  NOEL: 8.6 mg/kg-day and 10 mg/kg-day
Rattus norvegicus [3]; subchronic, duration: 13 weeks, gavage, Liver: Effects
  NOEL: 10 mg/kg-day

## ClC1(Cl)C2(Cl)C3(Cl)C4(Cl)C(Cl)(Cl)C5(Cl)C3(Cl)C1(Cl)C5(Cl)C24Cl (stereo unspecified) [Mirex]
Rattus norvegicus [1]; [10]
  LOAEL: 0.7 mg/kg-day
  NOAEL: 0.07 mg/kg-day
Rattus norvegicus [2]; chronic, duration: 2 years, oral, diet, Fischer 344, hepatic
  NOAEL: 0.075 mg/kg-day
Rattus norvegicus [3]; chronic, duration: 2 years, diet, Liver: Angiectasis + Liver: Cytomegaly + Liver: Fatty metamorphosis + Thyroid: Cystic follicles
  NOAEL: 0.07 mg/kg-day
Rattus norvegicus [4]
  LEL: 1 mg/day

## CCOP(=S)(OCC)SCCSCC [Disulfoton]
Rattus norvegicus [1]; chronic, duration: 2 years, diet, cholinesterase inhibition, optic nerve degeneration
  LEL: 0.04 mg/kg-day
Rattus norvegicus [2]; chronic, duration: 2 years, oral, diet, F, Fischer 344, neurological
  LOAEL: 0.06 mg/kg-day
Rattus norvegicus [2]; developmental, duration: 364 days, oral, diet, Sprague-Dawley, neurological, developmental
  NOAEL: 0.009 mg/kg-day
Rattus norvegicus [2]; short-term, duration: 3 weeks, inhalation, Wistar TNO/W 74 albino, neurological
  NOAEL: 0.1 mg/m3
Rattus norvegicus [2]; short-term, duration: 3 weeks, inhalation, chamber, Wistar TNO/W 74 albino, neurological
  NOAEL: 0.1 mg/m3
Rattus norvegicus [3]; chronic, duration: 2 years, diet, Blood: Cholinesterase inhibition + Eye: Degeneration
  LOAEL: 0.04 mg/kg-day

## O=C(O)C(F)(OC(F)(F)C(F)(F)C(F)(F)F)C(F)(F)F (stereo unspecified) [Perfluoro-2-methyl-3-oxahexanoic acid]
Mus musculus; [11]
  LEL: 100 mg/kg-day
  NEL: 10 mg/kg-day
Mus musculus; [12]
  LEL: 10 mg/kg-day
  NEL: 1 mg/kg-day
Mus musculus; F, Spleen: B Cell Count + Spleen: CD4-/CD8- Cell Count + Spleen: CD4+ Cell Count + Spleen: CD4+/CD8+ Cell Count + Spleen: CD8+ Cell Count + …
  NEL: 100 mg/kg-day
Mus musculus; [13]
  LEL: 10 mg/kg-day
  NEL: 1 mg/kg-day
Mus musculus; M, Multi-organ: IgM Serum Titer + Spleen: B Cell Count + Spleen: CD4+ Cell Count + Spleen: Spleen Weight, Absolute + Spleen: Spleen Weight, …
  NEL: 100 mg/kg-day
Mus musculus; [14]
  LEL: 100 mg/kg-day
  NEL: 10 mg/kg-day

## CC(C)Nc1nc(Cl)nc(NC(C)C)n1 [2,4-Bis(isopropylamino)-6-chloro-1,3,5-triazine]
Rattus norvegicus [1]; [15]
  LEL: 50 mg/kg-day
  NOEL: 5 mg/kg-day
Rattus norvegicus [3]; chronic, duration: 2 years, diet, Whole body: Decreased weight gain
  NOEL: 5 mg/kg-day
